# Reference: patent US20080051464A1, “Protein phosphatase inhibitors” (The Cleveland Clinic Foundation, priority 2006, published 2008)
# Key:
# [1] = system: B16 melanoma cells; experiment: B16 melanoma cell growth in culture (MTT assay); assay type: cell-based, mouse; details: doses up to 10 μg/ml, 5 days
# Text: (§1) L5, L6 and L6 analogs (Chembridge), mouse IFNγ ELISPOT Kit (R & D System) and antibody against pLck-pY394 or pERK1/2 (Cell Signaling) were purchased from commercial sources. Human Jurkat T cell line and murine B16 melanoma cell line (ATCC) and other cancer cell lines were maintained in […] culture medium supplemented with 10% fetal calf serum (FCS). The effects of chemical compounds on cancer cell growth in culture were quantified by MTT assays following our established procedures.
# [2] = system: pZap70, pSlp76 and pLAT in Jurkat cells; experiment: induction of pZap70, pSlp76 and pLAT in Jurkat cells (Western blotting); assay type: cell-based, human
# Method: (§2) Jurkat cells in culture medium (3×10^6 cells/ml, 1 ml/tube) were treated with agents for designated times at room temperature. After brief centrifuging in a microfuge (4,000 rpm, 2 min), the cell pellet was lysed on ice for 30 min in 100 μl of cold lysis buffer (1% NP40, 50 mM Tris, pH 7.4, 150 mM NaCl, 20 mM NaF, 0.2 mM Na3VO4 and 1 mM Na3MO4) containing a cocktail of proteinase inhibitors (Sigma, 1 tablet/10 ml). The lysates were cleared by centrifuging (14,000 rpm, 10 min) in a microfuge at 4° C. to remove insoluble parts, mixed with equal volume of 2×SDS-PAGE sample buffer, boiled for 5 min and analyzed (˜3×10^5 cells/well) by SDS-PAGE/Western blotting. Relative intensities of phosphotyrosine bands were quantified through densitometry analysis.
# Jurkat cells in culture medium (3×10^6 cells/ml, 1 ml/tube) were treated with agents for designated times at room temperature. […] The lysates were cleared by centrifuging (14,000 rpm, 10 min) in a microfuge at 4° C. to remove insoluble parts, mixed with equal volume of 2×SDS-PAGE sample buffer, boiled for 5 min and analyzed (˜3×10^5 cells/well) by SDS-PAGE/Western blotting as described previously (17, 18). Relative intensities of phosphotyrosine bands were quantified through densitometry analysis.
# [3] = system: SHP-1 substrate pLck-pY394 in Jurkat T cells; experiment: induction of pLck-pY394 in Jurkat cells (SDS-PAGE/Western blotting); assay type: cell-based, human
# Method: as §2
# as §2, with “blotting as described previously (23, 24).” for “blotting.”
# as §2, with “blotting as described previously (17, 18).” for “blotting.”
# [4] = system: Jurkat cells; experiment: Jurkat cell growth in culture (MTT assay); assay type: cell-based, human
# Method: FIG. 3 illustrates differential toxicity of L5 and L6. Jurkat cells were cultured in the absence or presence of lead compound #5 (L5) (A) or #6 (L6) (B) for 6 days prior to quantification of cell growth by MTT assays. Data represent mean ±SD of triplicate samples. Balb/c mice were treated with L5 (˜10 mg/kg body weight, s.c., daily, M-F/wk) for two weeks to assess its toxicity in vivo (C).
# as §1
smiles,measurement,setting,value
O=C1C=CC(=O)C(c2cc(Cl)ccc2Cl)=C1 [L5],direct toxicity against B16 cells,[1],little direct toxicity
same,levels of pZap70 and pSlp76,"[2]; 0.01, 0.1, 1 or 3 μg/ml",obviously increased
same,pLAT,[2]; L5-treated Jurkat cells,induced pLAT
same,level capable of inhibiting SHP-1 in Jurkat T cells,[3],10 ng/mL
same,level capable of inhibiting SHP-1 in Jurkat T cells (molar),[3],~40 nM
same,pLck-pY394 induction,"[3]; 0.01 μg/ml, 10 min",2-3 fold
same,pLck-pY394 induction,"[3]; 0.1, 1 or 3 μg/ml, 10 min",> 4 folds
same,effective dose for pLck-pY394 induction / intracellular SHP-1 inhibition,"[3]; Jurkat cells, 10 min",≥ 0.01 μg/ml
same,pLck-pY394 induction in comparison to untreated control,"[3]; Jurkat cells, 10 min, densitometry (FIG. 2)",~10 fold
same,potency relative to SSG,[3]; by weight,"approximately 1,000 fold"
same,potency relative to SSG,[3]; in equal molar ratios,~350 fold
same,toxicity against Jurkat cells in culture (summary),[4],marked toxicity
same,growth of Jurkat cells in culture,"[4]; ~30 ng-1 μg/ml, 6 days",not markedly affected
